Tests used:
Test in all cases: Bliss excess, mean over the matrix (fraction); higher = more synergy
[1] = test system: 647-V (Bladder Carcinoma)
Outline: (§1)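 Cell lines in DMEM/F12 or RPMI with 10% FBS were plated in 1536-well plates, held 24 hours at 37°C, 5% CO2, then given two-drug dose matrices for 72 hours (DMSO typically 0.2%). Viability was read by CellTiter-Glo 2.0 luminescence and scaled as inhibition from 0 (vehicle wells) to 1 (blank wells). Combination Emax is the second-highest inhibition in the matrix; Bliss excess is observed combination effect minus expected EA + EB − EA·EB, EA and EB being single-agent effects.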

A172 (Glioblastoma) = test system: A172 (Glioblastoma)
Outline: as §1

[2] = test system: BICR78 (Oral Cavity Carcinoma)
Outline: as §1

[3] = test system: CAL-39 (Other Solid Carcinomas)
Outline: as §1

[4] = test system: DOK (Oral Cavity Carcinoma)
Outline: as §1

EW-22 (Ewing's Sarcoma) = test system: EW-22 (Ewing's Sarcoma)
Outline: as §1

[5] = test system: GDM-1 (Acute Myeloid Leukemia)
Outline: as §1

H4 (Low Grade Glioma) = test system: H4 (Low Grade Glioma)
Outline: as §1

[6] = test system: HCC-827 (Lung Adenocarcinoma)
Outline: as §1

[7] = test system: HCC1143 (Breast Carcinoma)
Outline: as §1

[8] = test system: HCT-116 (Colorectal Carcinoma)
Outline: as §1

[9] = test system: P31-FUJ (Acute Myeloid Leukemia)
Outline: as §1

[10] = test system: RCC10RGB (Kidney Carcinoma)
Outline: as §1

[11] = test system: SKN-3 (Head and Neck Carcinoma)
Outline: as §1

[12] = test system: SW948 (Colorectal Carcinoma)
Outline: as §1

Saos-2 (Osteosarcoma) = test system: Saos-2 (Osteosarcoma)
Outline: as §1

[13] = test system: TYK-nu (Ovarian Carcinoma)
Outline: as §1

[14] = test system: U-118-MG (Low Grade Glioma)
Outline: as §1

[15] = test system: WSU-DLCL2 (B-Cell Non-Hodgkin's Lymphoma)
Outline: as §1

[16] = test system: YT (Other Blood Carcinomas)
Outline: as §1

SMILES	Bliss excess [1]	Bliss excess (A172 (Glioblastoma))	Bliss excess [2]	Bliss excess [3]	Bliss excess [4]	Bliss excess (EW-22 (Ewing's Sarcoma))	Bliss excess [5]	Bliss excess (H4 (Low Grade Glioma))	Bliss excess [6]	Bliss excess [7]	Bliss excess [8]	Bliss excess [9]	Bliss excess [10]	Bliss excess [11]	Bliss excess [12]	Bliss excess (Saos-2 (Osteosarcoma))	Bliss excess [13]	Bliss excess [14]	Bliss excess [15]	Bliss excess [16]
CC1(C)CCC(CN2CCN(c3ccc(C(=O)NS(=O)(=O)c4ccc(NCC5CCOCC5)c([N+](=O)[O-])c4)c(Oc4cnc5[nH]ccc5c4)c3)CC2)=C(c2ccc(Cl)cc2)C1 [Venetoclax] + Cc1cc2ncnn2cc1Nc1ncc2c(n1)n(C1CCOCC1)c(=O)n2C [AZD7648] (first compound max 1 µM, 7x7, partner max 10 µM)	0.0316	-0.0385	-0.0493	-0.104	-0.0208	-0.0094	0.0419	-0.0541	0.0085	0.0481	0.0048	-0.015	-0.0536	-0.0193	-0.0448	-0.0075	-0.0074	-0.0148	0.0706	-0.0667
NC1(C(=O)N[C@@H](CCO)c2ccc(Cl)cc2)CCN(c2ncnc3[nH]ccc23)CC1 [Capivasertib] + Cn1cnc2c(F)c(Nc3ccc(Br)cc3Cl)c(C(=O)NOCCO)cc21 [Selumetinib] (first compound max 10 µM, 7x7, partner max 10 µM)	-0.0134	-0.008	-0.0016	-0.019	0.0518	-0.0255	0.072	-0.0307	0.04	-0.0014	0.0512	0.0376	-0.0305	-0.0759	-0.0554	0.0087	0.0219	0.0071	-0.0006	-0.0041
CCc1c2c(nc3ccc(O)cc13)-c1cc3c(c(=O)n1C2)COC(=O)[C@]3(O)CC [SN-38] + CN(C)CCCOc1ccc(-c2ccc3ncc4c(c3c2)n(C2CCOCC2)c(=O)n4C)cn1 [AZD0156] (first compound max 0.3 µM, 7x7, partner max 1 µM)	0.0291	0.0443	-0.0014	-0.0039	0.0323	0.0276	-0.0216	-0.0255	0.0556	0.0405	0.0669	0.0647	-0.0262	-0.0209	0.237	-0.0279	-0.0182	-0.0108	0.0312	-0.0872
Cc1c2c(nn1C)CSCc1cc(n(C)n1)CSc1cc(c3ccccc3c1)OCCCc1c(C(=O)O)n(C)c3c-2c(Cl)ccc13 [AZD5991] + C1CN(CCC1(C(=O)N[C@@H](CCO)C2=CC=C(C=C2)Cl)N)C3=NC=NC4=C3C=CN4 [Capivasertib] (first compound max 1 µM, 7x7, partner max 3 µM)	-0.0059	-0.0001	-0.0198	-0.0203	-0.0113	0.0007	0.0461	0.0378	-0.0212	0.0114	-0.0275	0.0182	-0.0085	-0.0285	0.0308	0.0473	0.0172	-0.0205	0.013	-0.0466
CS(=O)(=O)CCNCc1ccc(-c2ccc3ncnc(Nc4ccc(OCc5cccc(F)c5)c(Cl)c4)c3c2)o1 [Lapatinib] + C[C@@H](Oc1cc(-c2cnn(C3CCNCC3)c2)cnc1N)c1c(Cl)ccc(F)c1Cl [Crizotinib] (first compound max 10 µM, 7x7, partner max 10 µM)	0.0097	-0.0564	0.0073	0.026	-0.0302	-0.0241	-0.0027	0.002	-0.038	-0.0312	-0.0748	-0.142	-0.0298	-0.0299	-0.0834	-0.0452	-0.0403	-0.0194	-0.0162	-0.081
Cn1cnc2c(F)c(Nc3ccc(Br)cc3Cl)c(C(=O)NOCCO)cc21 [Selumetinib] + C[C@@H]1COCCN1C2=NC(=NC(=C2)C3(CC3)[S@](=N)(=O)C)C4=C5C=CNC5=NC=C4 [AZD6738] (first compound max 10 µM, 7x7, partner max 10 µM)	0.0218	-0.0564	-0.001	-0.0152	0.0628	-0.028	0.0409	-0.0067	-0.0172	-0.0207	-0.0093	-0.0802	0.119	0.0257	-0.0114	-0.0349	0.089	0.0263	-0.0228	-0.064
COc1cccc2c1C(=O)c1c(O)c3c(c(O)c1C2=O)C[C@@](O)(C(=O)CO)C[C@@H]3O[C@H]1C[C@H](N)[C@H](O)[C@H](C)O1 [Doxorubicin] + Cc1cc2ncnn2cc1Nc1ncc2c(n1)n(C1CCOCC1)c(=O)n2C [AZD7648] (first compound max 1 µM, 7x7, partner max 10 µM)	0.107	0.0789	0.028	0.0233	0.0485	0.061	0.112	0.0066	0.0178	0.0202	0.0556	0.108	-0.0449	0.0045	0.0438	0.0415	0.0591	0.0909	0.101	0.0344
CN(CCO)CC[C@H](CSc1ccccc1)Nc1ccc(S(=O)(=O)NC(=O)c2ccc(N3CCC([C@@H](O)c4ccccc4-c4ccc(Cl)cc4)CC3)cc2)cc1S(=O)(=O)C(F)(F)F [AZD4320] + C=CCn1c(=O)c2cnc(Nc3ccc(N4CCN(C)CC4)cc3)nc2n1-c1cccc(C(C)(C)O)n1 [AZD1775] (first compound max 1 µM, partner max 1 µM)	0.0479	-0.0101	0.0149	-0.0529	-0.0273	0.0897	0.0814	0.0551	-0.0164	-0.0111	-0.0294	0.113	-0.0183	-0.0056	0.0744	0.0348	-0.0845	0.0108	-0.009	-0.0156
Cc1cc2ncnn2cc1Nc1ncc2c(n1)n(C1CCOCC1)c(=O)n2C [AZD7648] + C=CCn1c(=O)c2cnc(Nc3ccc(N4CCN(C)CC4)cc3)nc2n1-c1cccc(C(C)(C)O)n1 [AZD1775] (first compound max 10 µM, partner max 1 µM)	0.0132	0.0587	0.0189	-0.0211	0.0331	-0.0043	-0.0239	-0.082	-0.0044	-0.0183	0.008	-0.0027	0.0016	-0.0033	-0.047	-0.0696	-0.0394	-0.0041	-0.0048	-0.124
COc1nnc2ccc(N3CCC(c4ccc(OCCN5CCN(C)C(=O)[C@H]5C)cc4)CC3)nn12 [AZD5153] + C=CCn1c(=O)c2cnc(Nc3ccc(N4CCN(C)CC4)cc3)nc2n1-c1cccc(C(C)(C)O)n1 [AZD1775] (first compound max 1 µM, partner max 1 µM)	-0.0448	-0.0521	-0.0302	-0.0493	-0.0239	0.0427	-0.0247	-0.0056	0.0237	-0.0047	-0.0367	-0.0392	0.0177	-0.0342	-0.11	-0.0011	-0.04	-0.0235	-0.0085	-0.0842
COc1nnc2ccc(N3CCC(c4ccc(OCCN5CCN(C)C(=O)[C@H]5C)cc4)CC3)nn12 [AZD5153] + CC1(C)CCC(CN2CCN(c3ccc(C(=O)NS(=O)(=O)c4ccc(NCC5CCOCC5)c([N+](=O)[O-])c4)c(Oc4cnc5[nH]ccc5c4)c3)CC2)=C(c2ccc(Cl)cc2)C1 [Venetoclax] (first compound max 1 µM, 7x7, partner max 1 µM)	-0.0455	-0.0363	-0.0468	-0.0432	-0.0696	-0.0176	0.0348	0.033	-0.0498	-0.0247	-0.0614	-0.0447	-0.0296	-0.0576	-0.0016	-0.0304	-0.0887	-0.0349	0.0805	-0.0496
CN(CCO)CC[C@H](CSc1ccccc1)Nc1ccc(S(=O)(=O)NC(=O)c2ccc(N3CCC([C@@H](O)c4ccccc4-c4ccc(Cl)cc4)CC3)cc2)cc1S(=O)(=O)C(F)(F)F [AZD4320] + CN(C)CCCOc1ccc(-c2ccc3ncc4c(c3c2)n(C2CCOCC2)c(=O)n4C)cn1 [AZD0156] (first compound max 1 µM, 7x7, partner max 1 µM)	0.0212	-0.0152	-0.0268	-0.0247	-0.0332	0.0228	-0.0248	-0.0334	-0.0351	0.0124	-0.0518	0.0814	-0.09	-0.0296	-0.0566	-0.0323	-0.1	-0.0537	0.0117	-0.0281

Reference: the supplement of paper PMC11061612
